Data as given in ChEMBL document CHEMBL1126716, “Synthesis and evaluation of the antitumor activity of 4,5-diamino-substituted 1,2-benzoquinones” (J Med Chem, 1993).

Assays:
[1] = test system: EMT6; experiment: Tested for 50% inhibition against EMT-6 murine mammary carcinoma cell under normal oxygenated condition; type: functional, cell-based; conditions: Mus musculus
[2] = test system: EMT6; experiment: Tested for 90% inhibition against EMT-6 murine mammary carcinoma cell under hypoxia condition; type: functional; conditions: Mus musculus
[3] = test system: EMT6; experiment: Tested for 90% inhibition against EMT-6 murine mammary carcinoma cell under normal oxygenated condition; type: functional; conditions: Mus musculus
[4] = test system: EMT6; experiment: Tested for 50% inhibition against EMT-6 murine mammary carcinoma cell under hypoxia condition; type: functional, cell-based; conditions: Mus musculus
[5] = test system: Mus musculus; experiment: Increase in life span of animals bearing L1210 leukemia after ip administration at a dose of 1.00 mg/kg; type: functional; conditions: route intraperitoneal
[6] = test system: Mus musculus; experiment: Increase in life span of animals bearing L1210 leukemia after ip administration at a dose of 1.25 mg/kg; type: functional; conditions: route intraperitoneal
[7] = test system: Mus musculus; experiment: Survival days at a dose of 1.00 mg/kg after ip administration on days 1-5; type: functional; conditions: route intraperitoneal
[8] = test system: Mus musculus; experiment: Survival days at a dose of 2.50 mg/kg after ip administration on days 1-5; type: functional; conditions: dose 2.5 mg/kg; route intraperitoneal
[9] = test system: Mus musculus; experiment: Increase in life span of animals bearing L1210 leukemia after ip administration at a dose of 0.50 mg/kg; type: functional; conditions: route intraperitoneal
[10] = test system: Mus musculus; experiment: Increase in life span of animals bearing L1210 leukemia after ip administration at a dose of 2.50 mg/kg; Toxic; type: functional, organism-based; parameters: dose 2.5 mg/kg
[11] = test system: Mus musculus; experiment: Increase in life span of animals bearing L1210 leukemia after ip administration at a dose of 1.50 mg/kg; type: functional; conditions: route intraperitoneal
[12] = test system: Mus musculus; experiment: Survival days at a dose of 2.00 mg/kg after ip administration on days 1-5; type: functional; conditions: route intraperitoneal
[13] = test system: Mus musculus; experiment: Survival days at a dose of 1.50 mg/kg after ip administration on days 1-5; type: functional; conditions: dose 1.5 mg/kg; route intraperitoneal
[14] = test system: Mus musculus; experiment: Survival days at a dose of 0.50 mg/kg after ip administration on days 1-5; type: functional; conditions: dose 0.5 mg/kg; route intraperitoneal
[15] = test system: Mus musculus; experiment: Survival days at a dose of 1.25 mg/kg after ip administration on days 1-5; type: functional; conditions: route intraperitoneal
[16] = test system: Mus musculus; experiment: Increase in life span of animals bearing L1210 leukemia after ip administration at a dose of 2.00 mg/kg; type: functional; conditions: route intraperitoneal

SMILES | IC90 [2] [µM] | IC50 [4] [µM] | IC50 [1] [µM] | IC90 [3] [µM] | further results
COC1=CC(=O)C(O)=C/C1=N\CCCl | 190 | 110 | 125 | 455 | –
O=C1C=C(N2CC2)C(N2CC2)=CC1=O | 1 | 0.2 | 0.4 | 1.1 | ILS at 1 mg/kg [5]: 81%; ILS at 1.25 mg/kg [6]: 84%; Survival days [7]: 13.4; Survival days [8]: 6; ILS at 0.5 mg/kg [9]: 70%; ILS [10]: Toxic; ILS at 1.5 mg/kg [11]: 86%; Survival days [12]: 11.8; Survival days [13]: 13.8; Survival days [14]: 12.6; Survival days [15]: 13.6; ILS at 2 mg/kg [16]: 59%
CCOC(=O)NC1=C(N2CC2)C(=O)C(NC(=O)OCC)=C(N2CC2)C1=O [DIAZIQUONE] | – | 7.5 | 5 | – | –

The next lines start with results.

IC90 [2] [µM] | IC50 [4] [µM] | SMILES | IC50 [1] [µM] | IC90 [3] [µM] | further results
> 500 | > 500 | COC1=CC(=O)C(=O)C=C1OC | 500 | > 500 | –
> 500 | 400 | O=C1C=C(N2CCC2)C(N2CCC2)=CC1=O | 500 | > 500 | –
> 500 | 400 | CCN(CC)C1=CC(=O)C(=O)C=C1N(CC)CC | 500 | > 500 | –
> 500 | > 500 | O=C1C=C(N2CCCC2)C(N2CCCC2)=CC1=O | > 500 | > 500 | –
